Measurements published in patent US20250188457A1, “COMPOSITIONS AND METHODS FOR THE TREATMENT OF GLIOBLASTOMA BY INHIBITION OF THE TFPI2-CD51-STAT6 SIGNALING AXIS” (Northwestern University, priority 2023, published 2025).

How the values were obtained:
[1] = tested on: SIM-A9, HMC3 microglia and PrhMG; assay: Flow cytometry for CD206 and ARG1 (microglia immunosuppressive polarization); type: cell-based, human and mouse; conditions: TFPI2 recombinant protein 20 ng/ml
Experimental: (§1) For membrane protein staining, the single-cell suspensions were washed with PBS and then incubated with fixable viability dye (Invitrogen, #5211229035) on ice for 10 min. Following washing with PBS, cells were incubated with the anti-CD16/CD32 cocktail (BioLegend, #103132) in 2% BSA PBS to block Fc receptors for 30 min on ice. Different antibody combinations, including Percp/Cy5.5 anti-mouse CD45 (BioLegend, #103132), AF488 anti-mouse CD3 (BioLegend, #100210), BV421 anti-mouse CX3CR1 (BD Bioscience, #567531), BUV395 anti-mouse CD4 (BD Bioscience, #740208), BV711 anti-mouse CD8 (BioLegend, #100747), PE/Cy7 anti-mouse/human CD11b (BioLegend, #101216), PE anti-mouse CD68 (BD Bioscience, #566386), PE anti-mouse PD1 (BioLegend, #135205), AF647 anti-mouse CD206 (BD Bioscience, #565250), AF647 anti-human CD206 (BioLegend, #321116), PE anti-human CD69 (BioLegend, #310906), PE/Cy7 anti-mouse CD69 (BioLegend, #104512), and BV650 anti-human HLA-DR (BioLegend, #307650) were added to cell suspensions for 30 min on ice. […] Samples were read in BD FACSymphony flow cytometer and analyzed in FlowJo v10.8.1.
Intracellular protein staining was performed separately or followed by cell surface marker staining. […] Then cell suspensions were rewashed in permeabilization buffer and read in BD FACSymphony flow cytometer.

[2] = tested on: JURKAT T cells cocultured with PrhMG; assay: Human microglia-T cell co-culture, flow cytometry; type: cell-based; conditions: TFPI2 recombinant protein 20 ng/ml; AS1517499 25 nM
Experimental: as §1, with “v10.8.1. […] Then cell suspensions were rewashed in permeabilization buffer and read in BD FACSymphony flow cytometer.” for “v10.8.1.”

[3] = tested on: SIM-A9 and HMC3 microglia; assay: RT-qPCR for microglia marker expression; type: cell-based, human and mouse; conditions: TFPI2 recombinant protein 20 ng/ml
Experimental: Cells were pelleted, and RNA was isolated with the RNeasy Mini Kit (Qiagen, #74106). RNA was quantified by NanoDrop spectrophotometers and then reverse-transcribed into cDNA by using the All-In-One 5×RT MasterMix (Applied Biological Materials, #G592) in T00 Thermal Cycler (Bio-Rad). RT-qPCR was performed using SYBR Green PCR Master Mix (Bio-Rad, #1725275) in CFX Connect Real-Time PCR Detection System (Bio-Rad). The expression of each gene was normalized to housekeeping genes.

[4] = tested on: PrhMG, HMC3 and SIM-A9 microglia; assay: Transwell migration assay of microglia; type: cell-based, human and mouse; conditions: TFPI2 recombinant protein 20 ng/ml
Experimental: For transwell migration assay, HMC3 microglia, SIM-A9 microglia, and PrhMG were suspended in serum-free culture medium and seeded into transwell 24-well plates with permeable polycarbonate membrane inserts (5.0 μm, Corning, #07-200-149). GSC conditioned media (CM), or basal cell culture medium with TFPI2 recombinant protein (BioVision, #7481-10) were added to the remaining receiver wells. The STAT6 inhibitor AS151749 (Selleck Chemicals, #S8685) was used to study the role of STAT6 in microglia migration. The CD51 inhibitor MK-0429 (MedChemExpress, #HY-15102) was used to study the role of CD51 in TFPI2-induced microglia migration. After 10 hrs, the migrated microglia were fixed and stained with crystal violet (Sigma, #C-3886). The number of transferred cells was counted using ImageJ (NIH, Bethesda, […]).

Molecule | TFPI2-induced increase of immunosuppressive microglia (CD206 and ARG1 expression) ([1]; mouse and human microglia, AS1517499 25 nM) | suppression of JURKAT T cell viability and activation by TFPI2-polarized microglia [2] | TFPI2-induced suppression of immunostimulatory microglia markers (MIF, IL23, CXCL11, IL6, TNFA, LFNG, HLA-DR) ([3]; AS1517499 25 nM) | TFPI2-induced transwell migration of human and mouse microglia ([4]; AS1517499 at indicated concentrations) | immunosuppressive microglia (CD206 and ARG1 expression) [1] | expression of immunostimulatory microglia markers (RT-qPCR) [3] | migration of microglia (SIM-A9, HMC3, PrhMG) [4]
NC(=O)c1cnc(NCCc2ccc(O)c(Cl)c2)nc1NCc1ccccc1 [AS1517499] | negated | prevented | countered | suppressed |  |  | 
TFPI2 recombinant protein (tissue factor pathway inhibitor 2; BioVision, #7481-10) (ligand, UniProt P48307 23-235, looked up, Bought recombinant protein added to microglia at 20 ng/ml; also called recombinant TFPI2; secreted TFPI2) DAAQEPTGNNAEICLLPLDYGPCRALLLRYYYDRYTQSCRQFLYGGCEGNANNFYTWEACDDACWRIEKVPKVCRLQVSVDDQCEGSTEKYFFNLSSMTCEKFFSGGCHRNRIENRFPDEATCMGFCAPKKIPSFCYSPKDEGLCSANVTRYYFNPRYRTCDAFTYTGCGGNDNNFVSREDCKRACAKALKKKKKMPKLRFASRIRKIRKKQF |  |  |  |  | increased | suppressed | dramatically increased
